The Deep4Chem optical property database
Values joined by “and” are separate entries in the source; they are usually repeats but may differ in a detail not shown here. Equal values may be shown once.

Test: photoluminescence quantum yield (fraction); solvent given as SMILES

## [NH3+]C(Cc1ccccc1)C(=O)[O-] (configuration not stated)
In O
  photoluminescence quantum yield: 0.022

## O=C1OC(c2ccccc2)=N/C1=C\c1ccc(N(c2ccccc2)c2ccccc2)cc1
In C1CCCCC1
  photoluminescence quantum yield: 0.031
In C1CCOC1
  photoluminescence quantum yield: 0.108
In C1COCCO1
  photoluminescence quantum yield: 0.045
In CC1CCCCC1
  photoluminescence quantum yield: 0.043
In CC#N
  photoluminescence quantum yield: 0.014
In CC(C)=O
  photoluminescence quantum yield: 0.055
In CC(C)CC(C)(C)C
  photoluminescence quantum yield: 0.028
In CCCCC
  photoluminescence quantum yield: 0.029
In CCCCCC
  photoluminescence quantum yield: 0.031
In CCCCCCC
  photoluminescence quantum yield: 0.034
In CCCCOCCCC
  photoluminescence quantum yield: 0.036
In CCOC(C)=O
  photoluminescence quantum yield: 0.095
In CCOCC
  photoluminescence quantum yield: 0.072
In CN(C)C=O
  photoluminescence quantum yield: 0.014
In CS(C)=O
  photoluminescence quantum yield: 0.012
In Cc1ccccc1
  photoluminescence quantum yield: 0.034
In ClC(Cl)Cl
  photoluminescence quantum yield: 0.028

## c1ccc(N2c3ccc4ccccc4c3-c3c4ccccc4cc[n+]3[B-]2(c2ccccc2)c2ccccc2)cc1
In Cc1ccccc1
  photoluminescence quantum yield: 0.17

## CC(C)[Si](C#Cc1c2cc3ccccc3cc2c(C#C[Si](C(C)C)(C(C)C)C(C)C)c2nc3c(ccc4ccccc43)nc12)(C(C)C)C(C)C
In CCCCCC
  photoluminescence quantum yield: 0.22

## [C-]#[N+]c1ccc(-c2ccc(N(C)C)cc2)cc1
In C1CCCCC1
  photoluminescence quantum yield: 0.82
In C1CCOC1
  photoluminescence quantum yield: 0.85
In C1COCCO1
  photoluminescence quantum yield: 0.74
In CC#N
  photoluminescence quantum yield: 0.89
In CC(C)=O
  photoluminescence quantum yield: 0.54
In CCCCCC
  photoluminescence quantum yield: 0.66
In CCOC(C)=O
  photoluminescence quantum yield: 0.54
In CN(C)C=O
  photoluminescence quantum yield: 0.86
In CO
  photoluminescence quantum yield: 0.15
In CS(C)=O
  photoluminescence quantum yield: 0.76
In Cc1ccccc1
  photoluminescence quantum yield: 0.62
In ClC(Cl)Cl
  photoluminescence quantum yield: 0.19
In ClCCl
  photoluminescence quantum yield: 0.8
In O
  photoluminescence quantum yield: 0.016
In c1ccncc1
  photoluminescence quantum yield: 0.63

## CN1C(=O)/C(=C/c2ccncc2)N=C1/C=C/c1ccncc1
In C1COCCO1
  photoluminescence quantum yield: 0.048
In CC#N
  photoluminescence quantum yield: 0.033
In CCO
  photoluminescence quantum yield: 0.028
In CCOC(C)=O
  photoluminescence quantum yield: 0.041
In O
  photoluminescence quantum yield: 0.013

## COc1cnc(-c2cc[n+](C3=C(F)C(F)(F)C(F)(F)[C-]3F)cc2)s1
In CC#N
  photoluminescence quantum yield: 0.64
In CC(C)=O
  photoluminescence quantum yield: 0.44
In CCO
  photoluminescence quantum yield: 0.21
In CN(C)C=O
  photoluminescence quantum yield: 0.04
In CO
  photoluminescence quantum yield: 0.08
In CS(C)=O
  photoluminescence quantum yield: 0.02
In ClC(Cl)Cl
  photoluminescence quantum yield: 0.73
In ClCCl
  photoluminescence quantum yield: 0.76

## Fc1ccc(C#Cc2cc(C#Cc3ccc(F)cc3)c(C#Cc3ccc(F)cc3)c(C#Cc3ccc(F)cc3)c2C#Cc2ccc(F)cc2)cc1
In ClCCl
  photoluminescence quantum yield: 0.43

## CC1(C)CC(/C=C/c2ccc(N3CCOCCOCCOCCOCC3)cc2)=CC(=C(C#N)C#N)C1
In CCO
  photoluminescence quantum yield: 0.111

## F[B-]1(F)OC(c2ccccc2)=C(c2ccccc2)c2oc3ccccc3[n+]21
In C1CCOC1
  photoluminescence quantum yield: 0.013

## CC1=CC(C)=[N+]2C1=C(c1ccc(C)cc1)c1c(C)cc(/C=C/c3ccc4ccc5cccc6ccc3c4c56)n1[B-]2(F)F
In CC1CCCO1
  photoluminescence quantum yield: 0.64

## CCCCN(CCCC)c1ccc(C#Cc2cc(C#Cc3ccc(C#N)cc3)c(C#Cc3ccc(N(CCCC)CCCC)cc3)cc2C#Cc2ccc(C#N)cc2)cc1
In ClCCl
  photoluminescence quantum yield: 0.25

## C(#Cc1nc2ccccc2s1)c1ccc(N(c2ccc(C#Cc3nc4ccccc4s3)cc2)c2ccc(C#Cc3nc4ccccc4s3)cc2)cc1
In Cc1ccccc1
  photoluminescence quantum yield: 0.8

## O=c1oc2c(ccc3ccccc32)nc1-c1ccccc1
In CC#N
  photoluminescence quantum yield: 0.5
In CCCCCC
  photoluminescence quantum yield: 0.32
In CO
  photoluminescence quantum yield: 0.45
In c1ccccc1
  photoluminescence quantum yield: 0.46 and 0.534

## F[B-]1(F)OC(c2ccc(C(F)(F)F)cc2)=Cc2ccc3ccccc3[n+]21
In ClC(Cl)Cl
  photoluminescence quantum yield: 0.37

## CC[N+]1(CC)CN2C(=N1)C(C(=O)O)=Cc1cc(C)ccc12
In O
  photoluminescence quantum yield: 0.269

## c1ccc(C2=C(c3ccccn3)[Si](c3ccccc3)(c3ccccc3)c3ccccc32)cc1
In ClCCl
  photoluminescence quantum yield: 0.004

## COc1ccc(C2=Nc3cccc4[n+]3[B-](F)(O2)OC(c2ccc(OC)cc2)=N4)cc1
In ClCCl
  photoluminescence quantum yield: 0.39

## c1ccc(-p2c3ccccc3c3sc4ccccc4c32)cc1 (configuration not stated)
In ClCCl
  photoluminescence quantum yield: 0.24

## COc1ccc2cc(C3=[N+]4C(=Nc5c(-c6ccccc6)cc(-c6ccc7cc(OC)ccc7c6)n5[B-]4(F)F)C(c4ccccc4)=C3Br)ccc2c1
In ClC(Cl)Cl
  photoluminescence quantum yield: 0.12
In ClCCl
  photoluminescence quantum yield: 0.12

## CC(C)[Si](C#Cc1c2ccc(C(C)(C)C)cc2c(C#Cc2c3ccc(C(C)(C)C)cc3c(C#C[Si](C(C)C)(C(C)C)C(C)C)c3ccc(C(C)(C)C)cc23)c2ccc(C(C)(C)C)cc12)(C(C)C)C(C)C
In Cc1ccccc1
  photoluminescence quantum yield: 0.02

## Cc1cc(C2=C(c3cc(C)sc3C)S(=O)(=O)c3ccccc32)c(C)s1
In C1CCOC1
  photoluminescence quantum yield: 0.016

## N#Cc1c(-n2nnc3c2CCC2C(CC3)[C@@H]2CO)n([C@H]2C[C@H](O)[C@@H](CO)O2)c2ncnc(N)c12 (some centres not stated)
In CO
  photoluminescence quantum yield: 0.014

## C[Si]1(C)c2cc(-c3ccc(-c4cccs4)s3)ccc2C=Cc2ccc(-c3ccc(-c4cccs4)s3)cc21
In ClCCl
  photoluminescence quantum yield: 0.46

## CC(C)c1cccc(C(C)C)c1N1C(=O)c2ccc3c(-c4ccccc4)c4c5ccc6c7c(ccc(c(-c8ccccc8)c4c4ccc(c2c34)C1=O)c75)C(=O)N(c1c(C(C)C)cccc1C(C)C)C6=O
In ClCCl
  photoluminescence quantum yield: 0.24

## CCOC(=O)CSc1nc(C)c(C)c(C#N)c1C#N
In c1ccccc1
  photoluminescence quantum yield: 0.035

## CCCCCCCCCCCCN1C(=O)c2c(c3ccc4cc(-c5ccc(-c6ccccc6)cc5)c(OC)cc4c3c3c2ccc2cc(-c4ccc(-c5ccccc5)cc4)c(OC)cc23)C1=O
In ClCCl
  photoluminescence quantum yield: 0.17

## CN(C)c1ccc(C2=[N+]3C(=Nc4c5ccccc5c(-c5ccc(N(C)C)cc5)n4[B-]3(F)F)c3ccccc32)cc1
In ClCCl
  photoluminescence quantum yield: 0.01

## CCCCn1c(-c2ccc(-c3nnc(-c4cccs4)o3)cc2)nc2c3ccccc3c3ccccc3c21
In ClCCl
  photoluminescence quantum yield: 0.62

## CCCCn1c(-c2ccc(-c3nnc(-c4ccc(-c5nc6ccccc6n5CCCC)cc4)o3)cc2)nc2ccccc21
In ClCCl
  photoluminescence quantum yield: 0.63

## COc1ccccc1C1=[N+]2C(=C(c3ccccc3)c3c4c(c(-c5ccccc5OC)n3[B-]2(F)F)C2CCC4CC2)C2=C1C1CCC2CC1
In ClCCl
  photoluminescence quantum yield: 0.77

## COc1ccc(-c2cc(-c3ccc(C#N)cc3)nn2C)cc1
In ClCCl
  photoluminescence quantum yield: 0.3

## COc1ccc2cc([C@H](C)C(=O)O)ccc2c1
In C1CCOC1
  photoluminescence quantum yield: 0.45
In CC#N
  photoluminescence quantum yield: 0.31
In CC(C)O
  photoluminescence quantum yield: 0.23
In CCCCO
  photoluminescence quantum yield: 0.17
In CCO
  photoluminescence quantum yield: 0.18
In CO
  photoluminescence quantum yield: 0.18
In ClCCl
  photoluminescence quantum yield: 0.32
In O
  photoluminescence quantum yield: 0.41

## O=Cc1ccc(-c2cccc(-c3nc4ccccc4s3)c2O)s1
In CCO
  photoluminescence quantum yield: 0.123
In ClCCl
  photoluminescence quantum yield: 0.164
In O
  photoluminescence quantum yield: 0.02

## Cc1ccc(C)c2nc3c(=O)[nH]c(=O)[nH]c3nc12
In CC#N
  photoluminescence quantum yield: 0.08

## COC(=O)c1ccc(/C=C2\N=C(c3ccc(OC)c(OC)c3)NC2=O)cc1
In C1COCCO1
  photoluminescence quantum yield: 0.295

## CCC1=C(C)C(=O)n2c1cc1c(c(C)c(C(=O)OCC(C)C)n1CC(C)C)c2=O
In C1CCCCC1
  photoluminescence quantum yield: 0.05
In CO
  photoluminescence quantum yield: 0.74
In CS(C)=O
  photoluminescence quantum yield: 0.84
In ClC(Cl)Cl
  photoluminescence quantum yield: 0.78
In c1ccccc1
  photoluminescence quantum yield: 0.22

## Cc1cc(C)c(B2c3cc(C(C)(C)C)ccc3-c3cccc4cc(C(C)(C)C)cc2c34)c(C)c1
In C1CCCCC1
  photoluminescence quantum yield: 0.8

## CC1=CC(C)=[N+]2C1=C(c1ccc(-c3c4ccccc4c(-c4ccccc4)c4ccccc34)cc1)c1c(C)cc(C)n1[B-]2(F)F
In CC#N
  photoluminescence quantum yield: 0.11
In CCCCCC
  photoluminescence quantum yield: 0.7
In CCO
  photoluminescence quantum yield: 0.37
In CN(C)C=O
  photoluminescence quantum yield: 0.13
In Cc1ccccc1
  photoluminescence quantum yield: 0.65
In ClCCl
  photoluminescence quantum yield: 0.57
